The target of the test is T1, human bradykinin B2 receptor (hB2R) (Homo sapiens, UniProt P30411).
T1 sequence (P30411 1-391): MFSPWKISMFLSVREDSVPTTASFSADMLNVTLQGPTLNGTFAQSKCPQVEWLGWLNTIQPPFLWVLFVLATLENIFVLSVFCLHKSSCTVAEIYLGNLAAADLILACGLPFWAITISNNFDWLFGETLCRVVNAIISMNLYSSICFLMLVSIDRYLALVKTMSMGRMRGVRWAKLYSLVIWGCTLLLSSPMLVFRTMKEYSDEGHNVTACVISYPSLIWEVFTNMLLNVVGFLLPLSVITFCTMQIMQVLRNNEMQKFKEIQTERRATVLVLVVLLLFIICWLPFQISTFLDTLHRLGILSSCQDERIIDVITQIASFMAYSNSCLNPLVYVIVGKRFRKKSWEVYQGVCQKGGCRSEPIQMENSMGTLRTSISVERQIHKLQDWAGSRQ
Kind of test: human bradykinin B2 receptor calcium mobilization (hB2R-CaM) assay. It is filed as cell-based. The following applies: antagonism of bradykinin (EC80) induced calcium mobilization, B2 Bradykinin Receptor Stable Cell Line HTS041C, 25 min pre-incubation; read-out: IC50-value towards human bradykinin B2 receptor (hB2R). An excerpt: The following cell-based human bradykinin B2 receptor calcium mobilization (hB2R-CaM) assay was used to determine the antagonistic activity of compounds selected from the example compounds Nos. 1 to 107 towards human bradykinin B2 receptor (hB2R). The assay is defined herein as a standard in vitro B2 receptor activity assay, which can be used to determine IC50 values of the compounds according to the present invention, e. g. the compounds shown in Examples 1-13.
The antagonistic activity of compounds according to the present invention was investigated with the hB2R-CaM assay using the B2 Bradykinin Receptor Stable Cell Line HTS041C (Eurofins, St. Charles MO) and the FLIPR Calcium 6 Assay Kit (Molecular Devices, Wokingham, UK) according to the instructions of the providers. CaM assay measurements were performed with a Flexstation 3 System (Molecular Devices) which allows the precise addition of compounds (B2R antagonists) and bradykinin (B2R agonist) to the cells and adjacent continuous recording of the time-dependent CaM assay signals.
HTS041C cells were cultured in high glucose DMEM cell culture medium (Lonza) supplemented with 10% heat-inactivated FBS (PAN Biotech), 10 mM HEPES, Penicillin/Streptomycin (200 U/mL, 200 μg/mL), lx non-essential amino acids (Lonza), and 250 μg/mL G418 (Invivogen) in cell incubator at 37° C. in a 5% CO2 atmosphere. One day before the CaM assay experiments cells were seeded in 200 μL DMEM cell culture medium with reduced FBS (5%) and without G418 on clear bottom black 96 well plates (ThermoFisher #165305). Cell starvation was carried out by incubation (37° C., 5% CO2) of 70.000 cells/well for 24 h to 28 h. Immediately prior calcium dye-loading the medium was carefully aspirated and cells were washed with Hank's balanced salt solution (HBSS, Gibco) containing Ca^2+, Mg^2+ and 20 mM HEPES, adjusted to pH 7.4 (HBSS+).
For calcium dye-loading one FLIPR 6 assay aliquot was dissolved in 20 mL HBSS+. 150 μL of the dye loading solution was added to cell plate and incubated for 120 min at 37° C. and 5% CO2. After dye loading the cell plate was immediately transferred to the pre-warmed (37° C.) Flexstation 3 System for CaM assaying.
Freshly prepared compound (B2 receptor antagonists) dilution series (8 pt, n=2) and bradykinin (B2 receptor agonist) solution in non-binding plates (Costar) were transferred to the Flexstation System (source plate) shortly before starting the experiment. Bradykinin was added in EC80 concentration determined in n>3 preliminary experiments with 8 pt concentration response curves (n=8)). CaM assay was executed by Flexstation 3 System starting with recording of calcium-sensitive dye fluorescence in bottom-read Flex modus with ex/em=485 nm/525 nm, cut off(em)=515 nm After 20 s, 50 μL of 4-fold concentrated compound dilutions were added to the cells resulting in a final DMSO (Sigma) concentration of 0.1% in the cell plate. CaM signals were monitored for 80 s after additions for detection of potential agonistic activities. Prior to bradykinin stimulus compound- and vehicle-treated cells were incubated for 25 min at 37° C. within the Flexstation System. Then 50 μL of a 5-fold concentrated bradykinin solution (HBSS+, 0.1% DMSO) was added to trigger CaM signals (Read out: Max-Min values) which were measured for 80 s post bradykinin stimulus.
IC50 determinations were performed by 4 parameter logistic model curve fitting of the 8 pt (n=2) compound concentration response curves using XLFIT (IDBS) software.
(Calcium flux is commonly read through the fluorescence of an indicator in the cells.)

42 compounds from US12312330B2, “1-((S)-1-(3-chloro-5-fluoro-2-((4-(1h-pyrazol-1-yl)-2-methylquinolin-8-yloxy)methyl)phenyl)ethyl)-imidazolidine-2,4-dione derivatives and related compounds as bradykinin (BK) B2 receptor antagonist for treating skin diseases” (Pharvaris GmbH, priority 2019, dated 2025) can be followed below.

`Cc1cc(-n2cc(F)cn2)c2cccc(OCc3c(Cl)cc(F)cc3[C@H](C)N3CC(=O)N(C)[C@@H](C)C3=O)c2n1` [Compound No. 12, (S)-1-((S)-1-(3-chloro-5-fluoro-2-((4-(4-fluoro-1H-pyrazol-1-yl)-2-methylquinolin-8-yloxy)methyl)phenyl)ethyl)-3,4-dimethylpiperazine-2,5-dione]: the IC50 (commonly the concentration that gives 50% inhibition) was at most 10 nM.

Regarding `Cc1cc(-n2cc(F)cn2)c2cccc(OCc3c(Cl)cc(F)cc3[C@H](C)N3CCCC3=O)c2n1` [compound 13], the IC50 fell in the range of 11 to 100 nM. Consider `Cc1cc(-n2cc(F)cn2)c2cccc(OCc3c(Cl)cc(F)cc3[C@H](C)N3CC(=O)N(C(C)C)C3=O)c2n1` [compound 14], for which the IC50 lay in the range of 11 to 100 nM.

`Cc1cc(-n2cc(F)cn2)c2cccc(OCc3c(Cl)cc(F)cc3[C@H](C)N3CC(=O)N(CCO)C3=O)c2n1` [compound 15]: the IC50 was at most 10 nM. With `Cc1cc(-n2cc(F)cn2)c2cccc(OCc3c(Cl)cc(F)cc3[C@H](C)N3CCCCC3=O)c2n1` [compound 16], the IC50 was in the range of 11 to 100 nM. On to `Cc1cc(-n2cc(F)cn2)c2cccc(OCc3c(Cl)cc(F)cc3[C@H](C)N3CC(=O)N(C4CC4)C3=O)c2n1` [compound 17], for which the IC50 lay in the range of 11 to 100 nM. Regarding `Cc1cc(-n2cc(F)cn2)c2cccc(OCc3c(Cl)cc(F)cc3[C@H](C)N3CCOCC3=O)c2n1` [compound 18], the IC50 is 11 to 100 nM. With `Cc1cc(-n2cc(F)cn2)c2cccc(OCc3c(Cl)cc(F)cc3[C@H](C)N3CC(=O)NC3=O)c2n1` [compound 19], the half-maximal inhibitory concentration (IC50) is 11 to 100 nM. Under `CNC(=O)CN1C(=O)CN([C@@H](C)c2cc(F)cc(Cl)c2COc2cccc3c(-n4cc(F)cn4)cc(C)nc23)C1=O` [compound 20] stands 11 to 100 nM. As for `Cc1cc(-n2cc(F)cn2)c2cccc(OCc3c(Cl)cc(F)cc3[C@H](C)N3CC(=O)N(CC(=O)N(C)C)C3=O)c2n1` [compound 21], the IC50 was in the range of 11 to 100 nM.

In the case of `Cc1cc(-n2cc(F)cn2)c2cccc(OCc3c(Cl)cc(F)cc3[C@H](C)N3CC(=O)N(CC(=O)O)C3=O)c2n1` [compound 22], the IC50 was in the range of 11 to 100 nM. The result for `Cc1cc(-n2cc(F)cn2)c2cccc(OCc3c(Cl)cc(F)cc3[C@H](C)N3CC(=O)N(CCN)C3=O)c2n1` [compound 23] reads 11 to 100 nM. Under `Cc1cc(-n2cc(F)cn2)c2cccc(OCc3c(Cl)cc(F)cc3[C@H](C)N3CC(=O)N(CCN(C)C)C3=O)c2n1` [compound 24] stands 11 to 100 nM; under `Cc1cc(-n2cc(F)cn2)c2cccc(OCc3c(Cl)cc(F)cc3[C@H](C)N3CC(=O)NCC3=O)c2n1` [compound 25], 11 to 100 nM. The result for `Cc1cc(-c2ncnn2C)c2cccc(OCc3c(Cl)cc(F)cc3[C@H](C)N3CCCCC3=O)c2n1` [compound 26] reads at most 10 nM; that for `Cc1cc(-c2ncnn2C)c2cccc(OCc3c(Cl)cc(F)cc3[C@H](C)N3CCCC3=O)c2n1` [compound 27], at most 10 nM. `Cc1cc(-n2cc(F)cn2)c2cccc(OCc3c(Cl)cc(F)cc3[C@H](C)N3CC[C@H](O)C3=O)c2n1` [compound 28]: the IC50 was 101 to 500 nM. The result for `Cc1cc(-c2ncnn2C)c2cccc(OCc3c(Cl)cc(F)cc3[C@H](C)N3CCOCC3=O)c2n1` [compound 34] reads at most 10 nM.

Regarding `Cc1cc(-n2cc(F)cn2)c2cccc(OCc3c(Cl)cc(F)cc3[C@H](C)N3CC[C@H](Cl)C3=O)c2n1` [compound 37], the IC50 is at most 10 nM. The result for `Cc1cc(-n2cc(F)cn2)c2cccc(OCc3c(Cl)cc(F)cc3[C@H](C)N3C[C@H](C)OCC3=O)c2n1` [compound 38] reads 11 to 100 nM.

`Cc1cc(-n2cc(F)cn2)c2cccc(OCc3c(Cl)cc(F)cc3[C@H](C)N3C[C@@H](C)OCC3=O)c2n1` [compound 39]: the IC50 was 11 to 100 nM. The result for `Cc1cc(-c2ncnn2C)c2cccc(OCc3c(Cl)cc(F)cc3[C@H](C)N3C[C@@H](C)OCC3=O)c2n1` [compound 40] reads at most 10 nM.

With `Cc1cc(-c2ncnn2C)c2cccc(OCc3c(Cl)cc(F)cc3[C@H](C)N3C[C@H](C)OCC3=O)c2n1` [compound 41], the IC50 was at most 10 nM. Under `Cc1cc(-n2cc(F)cn2)c2cccc(OCc3c(Cl)cc(F)cc3[C@H](C)N3CC[C@@H](O)C3=O)c2n1` [compound 42] stands 11 to 100 nM; under `Cc1cc(-c2ncnn2C)c2cccc(OCc3c(Cl)cc(F)cc3[C@H](C)N3CC[C@@H](O)C3=O)c2n1` [compound 43], 11 to 100 nM; under `Cc1cc(-c2ncnn2C)c2cccc(OCc3c(Cl)cc(F)cc3[C@H](C)N3CC[C@H](Cl)C3=O)c2n1` [compound 44], at most 10 nM.

Turning to `Cc1cc(-n2cc(F)cn2)c2cccc(OCc3c(Cl)cc(F)cc3[C@H](C)N3C[C@@H](O)CCC3=O)c2n1` [compound 45], the IC50 is at most 10 nM.

For the compound `Cc1cc(-n2cc(F)cn2)c2cccc(OCc3c(Cl)cc(F)cc3[C@H](C)N3CC(=O)N(C)CC3=O)c2n1` [compound 46], the IC50 is at most 10 nM.

As to `Cc1cc(-c2ncnn2C)c2cccc(OCc3c(Cl)cc(F)cc3[C@H](C)N3CC(=O)N(C)CC3=O)c2n1` [compound 47], the IC50 lay within 11 to 100 nM.

For `Cc1cc(-n2cc(F)cn2)c2cccc(OCc3c(Cl)cc(F)cc3[C@H](C)N3CCNC(=O)C3=O)c2n1` [compound 50], the IC50 is at most 10 nM. As to `Cc1cc(-n2cc(F)cn2)c2cccc(OCc3c(Cl)cc(F)cc3[C@H](C)N3CCNCC3=O)c2n1` [compound 57], the IC50 lay within 11 to 100 nM. The result for `Cc1cc(-n2cc(F)cn2)c2cccc(OCc3c(Cl)cc(F)cc3[C@H](C)N3CC(C)CC3=O)c2n1` (stereo partly drawn) [compound 62] reads 11 to 100 nM. As for `Cc1cc(-c2ncnn2C)c2cccc(OCc3c(Cl)cc(F)cc3[C@H](C)N3CC(C)CC3=O)c2n1` (stereo partly drawn) [compound 63], the IC50 was at most 10 nM. On to `Cc1cc(-n2cc(F)cn2)c2cccc(OCc3c(Cl)cc(F)cc3[C@H](C)N3CCC(C)(C)C3=O)c2n1` [compound 64], for which the IC50 was in the range of 11 to 100 nM. The result for `Cc1cc(-c2ncnn2C)c2cccc(OCc3c(Cl)cc(F)cc3[C@H](C)N3CCC(C)(C)C3=O)c2n1` [compound 65] reads 11 to 100 nM; that for `CCC1CCC(=O)N([C@@H](C)c2cc(F)cc(Cl)c2COc2cccc3c(-n4cc(F)cn4)cc(C)nc23)C1` (stereo partly drawn) [compound 66], 11 to 100 nM. In the case of `CCC1CCC(=O)N([C@@H](C)c2cc(F)cc(Cl)c2COc2cccc3c(-c4ncnn4C)cc(C)nc23)C1` (stereo partly drawn) [compound 67], the IC50 is at most 10 nM. With `Cc1cc(-c2ncnn2C)c2cccc(OCc3c(Cl)cc(F)cc3[C@H](C)N3C[C@H](C)NC(=O)C3=O)c2n1` [compound 68], the IC50 is at most 10 nM. With `Cc1cc(-c2ncnn2C)c2cccc(OCc3c(Cl)cc(F)cc3[C@H](C)N3CC[C@H](N)C3=O)c2n1` [compound 69], the IC50 is 11 to 100 nM.

Consider `Cc1cc(-n2cc(F)cn2)c2cccc(OCc3c(Cl)cc(F)cc3[C@H](C)N3C[C@@H](O)CC3=O)c2n1` [compound 72], for which the IC50 was at most 10 nM. Regarding `Cc1cc(-c2ncnn2C)c2cccc(OCc3c(Cl)cc(F)cc3[C@H](C)N3C[C@@H](O)CC3=O)c2n1` [compound 73], the IC50 was at most 10 nM. The result for `Cc1cc(-c2ncnn2C)c2cccc(OCc3c(Cl)cc(F)cc3[C@H](C)N3CC(=O)N(C)[C@@H](C)C3=O)c2n1` [compound 74] reads 11 to 100 nM.
